Data as given in patent publication US8309558B2, “Compounds for the treatment of hepatitis C” (Bristol-Myers Squibb Company, priority 2008, dated 2012).
Like-named read-outs stand apart in the source and are kept apart here.

Key:
HCV replicon cells = experiment: HCV replicon FRET / luciferase assay (96-well plates); assay type: cell-based; conditions: Hepatitis C virus, HCV replicon, read-out: EC50
Summary of the method: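 Replicon cells (with or without Renilla luciferase reporter) incubated with titrated compounds at 37 °C; Alamar blue read for cytotoxicity first. NS3 protease activity read kinetically with 20 μM EDANS/DABCYL FRET peptide in lysis reagent plus 150 mM NaCl (ex 340/em 490), or by Dual-Glo luciferase. EC50 = 50% signal reduction after protease-inhibitor background subtraction.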

[1] = biological target: T1, HCV NS5B RdRp genotype 1b (Hepatitis C virus genotype 1b, UniProt Q9WMX2); experiment: Standard HCV NS5B RdRp enzyme assay; assay type: biochemical; conditions: HCV NS5B RdRp genotype 1b, read-out: IC50
T1 construct: The protein was expressed with an 18 amino acid C-terminal truncation to enhance the solubility; made in house; host or cells: E. coli BL21(DE3), pET21a vector
T1 sequence (Q9WMX2 2420-2992): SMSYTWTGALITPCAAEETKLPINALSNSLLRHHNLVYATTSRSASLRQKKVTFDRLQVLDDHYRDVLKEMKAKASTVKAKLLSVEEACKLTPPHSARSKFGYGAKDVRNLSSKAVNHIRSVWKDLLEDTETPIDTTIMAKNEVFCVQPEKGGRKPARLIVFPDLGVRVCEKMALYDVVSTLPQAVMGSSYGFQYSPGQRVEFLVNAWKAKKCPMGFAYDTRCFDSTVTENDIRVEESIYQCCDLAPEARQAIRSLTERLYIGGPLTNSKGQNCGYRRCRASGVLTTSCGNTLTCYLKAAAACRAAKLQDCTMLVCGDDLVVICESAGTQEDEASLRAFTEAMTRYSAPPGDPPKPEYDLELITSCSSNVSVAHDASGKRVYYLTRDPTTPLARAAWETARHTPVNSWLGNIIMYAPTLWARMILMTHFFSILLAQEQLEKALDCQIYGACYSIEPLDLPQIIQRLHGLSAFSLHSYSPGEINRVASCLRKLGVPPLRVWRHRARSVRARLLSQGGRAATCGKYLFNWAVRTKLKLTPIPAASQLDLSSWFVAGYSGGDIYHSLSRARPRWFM
Summary of the method: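 C-terminally truncated (18 aa) genotype 1b NS5B from E. coli, 28 nM, with 6 nM polyA template, 180 nM biotinylated oligo-dT12 primer and 3H-UTP (0.29 μM total UTP). Hepes pH 7.5 buffer with 2% DMSO; 60 min at 30° C. EDTA stop, SPA read-out; IC50 from seven concentrations by four-parameter fit.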

Row | SMILES | EC50 (HCV replicon cells; Table 1b) | IC50 ([1]; Table 1b) | EC50 (HCV replicon cells; 24 h, Table 1d (class symbols)) | IC50 ([1]; Table 1d (class symbols))
1 | CNC(=O)c1c(-c2ccc(F)cc2)oc2ccc(-c3cc(NC(=O)OC(C)(C)C)cc(C(=O)NCC(C)C)c3)cc12 | < 250 nM | 250 to 1000 nM |  | 
2 | CNC(=O)c1c(-c2ccc(F)cc2)oc2cc([N+](=O)[O-])c(-c3cccc(C(=O)NCC(C)C)c3)cc12 | < 250 nM | < 250 nM |  | 
3 | CNC(=O)c1c(-c2ccc(F)cc2)oc2ccc(-c3cc(C(=O)NCC(C)C)ccc3OC3CCCC3)cc12 | 1000 to 10000 nM | > 10000 nM |  | 
4 | CNC(=O)c1c(-c2ccc(F)cc2)oc2ccc(-c3ccc(-c4ccccc4Cl)c(C(=O)NCC(C)C)c3)cc12 | < 250 nM | < 250 nM |  | 
5 | CNC(=O)c1c(-c2ccc(F)cc2)oc2ccc(-c3ccc(-c4ccccc4C(N)=O)c(C(=O)NCC(C)C)c3)cc12 | < 250 nM | < 250 nM |  | 
6 | CNC(=O)c1c(-c2ccc(F)cc2)oc2ccc(-c3ccc(-c4ccccc4NC(C)=O)c(C(=O)NCC(C)C)c3)cc12 | 1000 to 10000 nM | 250 to 1000 nM |  | 
7 | CNC(=O)c1c(-c2ccc(F)cc2)oc2ccc(-c3ccc(-c4ccccc4COC)c(C(=O)NCC(C)C)c3)cc12 | < 250 nM | 250 to 1000 nM |  | 
8 | CNC(=O)c1c(-c2ccc(F)cc2)oc2ccc(-c3ccc(-c4cccc(CC#N)c4)c(C(=O)NCC(C)C)c3)cc12 | < 250 nM | < 250 nM |  | 
9 | CCNC(=O)c1cccc(-c2ccc(-c3ccc4oc(-c5ccc(F)cc5)c(C(=O)NC)c4c3)cc2C(=O)NCC(C)C)c1 | < 250 nM | < 250 nM |  | 
10 | CNC(=O)c1c(-c2ccc(F)cc2)oc2ccc(-c3ccc(-c4cccc(-c5ccccc5)c4)c(C(=O)NCC(C)C)c3)cc12 | 250 to 1000 nM | > 10000 nM |  | 
11 | CNC(=O)c1c(-c2ccc(F)cc2)oc2ccc(-c3cccc(-c4nc(C(C)C)no4)c3)cc12 | 250 to 1000 nM | > 1390 nM |  | 
12 | CNC(=O)c1c(-c2ccc(F)cc2)oc2ccc(-c3cccc(-c4nc(-c5ccccc5)no4)c3)cc12 | < 250 nM | > 10000 nM |  | 
13 | CNC(=O)c1c(-c2ccc(F)cc2)oc2ccc(-c3ccc(F)c(C(=O)NC(C)(C)C)c3)cc12 | < 250 nM | < 250 nM |  | 
14 | CNC(=O)c1c(-c2ccc(F)cc2)oc2cc(NS(C)(=O)=O)c(-c3cc(C(=O)NCC(C)C)ccc3OC)cc12 | < 250 nM | < 250 nM |  | 
15 | CNC(=O)c1c(-c2ccc(F)cc2)oc2ccc(-c3cccc(-c4nc(-c5ccccc5)c[nH]4)c3)cc12 | < 250 nM | 250 to 1000 nM |  | 
16 | CNC(=O)c1c(-c2ccc(F)cc2)oc2ccc(-c3cccc(C(=O)NC(C)(C)C(=O)Nc4nncs4)c3)cc12 | < 250 nM | < 250 nM |  | 
17 | CNC(=O)c1c(-c2ccc(F)cc2)oc2ccc(-c3cccc(-c4ccn[nH]4)c3)cc12 | 1000 to 10000 nM | 1000 to 10000 nM |  | 
18 | CNC(=O)c1c(-c2ccc(F)cc2)oc2ccc(-c3cccc(-c4ccnn4Cc4ccccc4)c3)cc12 | < 250 nM | < 250 nM |  | 
19 | CNC(=O)c1c(-c2ccc(F)cc2)oc2ccc(-c3c(C)ccc(C(=O)O)c3OC)cc12 | > 10000 nM | 1000 to 10000 nM |  | 
20 | CNC(=O)c1c(-c2ccc(F)cc2)oc2ccc(-c3cccc(C(=O)NC(C)(C)C(=O)Nc4cc(C)[nH]n4)c3)cc12 | < 250 nM | < 250 nM |  | 

Row | SMILES | EC50 (HCV replicon cells; Table 1b) | IC50 ([1]; Table 1b) | EC50 (HCV replicon cells; 24 h, Table 1d (class symbols)) | IC50 ([1]; Table 1d (class symbols))
21 | CNC(=O)c1c(-c2ccc(F)cc2)oc2ccc(-c3cccc(C(=O)NC(C)(C)C(=O)Nc4cc(C)no4)c3)cc12 | < 250 nM | < 250 nM |  | 
22 | CNC(=O)c1c(-c2ccc(F)cc2)oc2ccc(-c3cccc(C(=O)NC(C)(C)C(=O)Nc4cc(C)on4)c3)cc12 | < 250 nM | < 250 nM |  | 
23 | CNC(=O)c1c(-c2ccc(F)cc2)oc2ccc(-c3cccc(C(=O)NC(C)(C)C(=O)Nc4nccnn4)c3)cc12 | < 250 nM | < 250 nM |  | 
24 | CCC(NC(=O)c1ccc(F)c(-c2cc3c(C(=O)NC)c(-c4ccc(F)cc4)oc3cc2N)c1)c1ccccc1 (centres unmarked) | < 250 nM | < 250 nM |  | 
25 | CNC(=O)c1c(-c2ccc(F)cc2)oc2ccc(-c3cc(C(=O)NC4(c5nnc(-c6cccnc6)[nH]5)CC4)ccc3C)cc12 | < 250 nM | < 250 nM |  | 
26 | CNC(=O)c1c(-c2ccc(F)cc2)oc2ccc(-c3cc(C(=O)NC4(c5nnc(-c6ccncc6)[nH]5)CC4)ccc3C)cc12 | < 250 nM | < 250 nM |  | 
27 | CNC(=O)c1c(-c2ccc(F)cc2)oc2ccc(-c3cc(C(=O)NC4(c5nnc(-c6ccccc6Cl)[nH]5)CC4)ccc3C)cc12 | < 250 nM | < 250 nM |  | 
28 | CNC(=O)c1c(-c2ccc(F)cc2)oc2ccc(-c3cc(C(=O)NC4(c5nnc(-c6cccc(OC)c6)[nH]5)CC4)ccc3C)cc12 | < 250 nM | < 250 nM |  | 
29 | CNC(=O)c1c(-c2ccc(F)cc2)oc2ccc(-c3cc(C(=O)NC4(c5nnc(-c6cccc(Cl)c6)[nH]5)CC4)ccc3C)cc12 | < 250 nM | < 250 nM |  | 
30 | CNC(=O)c1c(-c2ccc(F)cc2)oc2ccc(-c3cc(C(=O)NC4(c5nnc(-c6ccc(Cl)cc6)[nH]5)CC4)ccc3C)cc12 | < 250 nM | 250 to 1000 nM |  | 
31 | CNC(=O)c1c(-c2ccc(F)cc2)oc2ccc(-c3cc(C(=O)NC4(c5nnc(C(N)=O)[nH]5)CC4)ccc3C)cc12 | 250 to 1000 nM | < 250 nM |  | 
32 | CNC(=O)c1c(-c2ccc(F)cc2)oc2ccc(-c3cc(C(=O)NC4(c5nnc(-c6ccc(OC)cc6)[nH]5)CC4)ccc3C)cc12 | < 250 nM | < 250 nM |  | 
33 | CNC(=O)c1c(-c2ccc(F)cc2)oc2ccc(-c3cc(C(=O)NC4(c5nnc(C(C)C)[nH]5)CC4)ccc3C)cc12 | < 250 nM | < 250 nM |  | 
34 | CNC(=O)c1c(-c2ccc(F)cc2)oc2ccc(-c3cc(C(=O)NC4(c5nnc(-c6ccccn6)[nH]5)CC4)ccc3C)cc12 | < 250 nM | < 250 nM |  | 
35 | CNC(=O)c1c(-c2ccc(F)cc2)oc2ccc(-c3cc(C(=O)NC4(c5nnc(C(F)(F)F)[nH]5)CC4)ccc3C)cc12 | < 250 nM | < 250 nM |  | 
36 | CNC(=O)c1c(-c2ccc(F)cc2)oc2ccc(-c3cc(C(=O)NC4(c5coc(C)n5)CC4)ccc3C)cc12 | < 250 nM | < 250 nM |  | 
37 | CNC(=O)c1c(-c2ccc(F)cc2)oc2ccc(-c3cc(C(=O)NC4(c5ccccn5)CC4)ccc3OCCN)cc12 | < 250 nM | < 20 nM |  | 
38 | CNC(=O)c1c(-c2ccc(F)cc2)oc2ccc(-c3cc(C(=O)NC4(c5ccccn5)CC4)c(OC(C)C)cc3C)cc12 | < 250 nM | < 250 nM |  | 
39 | CNC(=O)c1c(-c2ccc(F)cc2)oc2ccc(-c3ccc(-c4ccccc4C(N)=O)c(C(=O)NC4(c5ccccn5)CC4)c3)cc12 | < 250 nM | < 250 nM |  | 
40 | CNC(=O)c1c(-c2ccc(F)cc2)oc2ccc(-c3cc(C(=O)NC4(c5ccccn5)CC4)ccc3OCCO)cc12 | < 250 nM | < 250 nM |  | 

Row | SMILES | EC50 (HCV replicon cells; Table 1b) | IC50 ([1]; Table 1b) | EC50 (HCV replicon cells; 24 h, Table 1d (class symbols)) | IC50 ([1]; Table 1d (class symbols))
41 | CNC(=O)c1c(-c2ccc(F)cc2)oc2ccc(-c3cc(C(=O)NC4(c5ccccn5)CC4)cc(O)c3C)cc12 | < 250 nM | < 250 nM |  | 
42 | CNC(=O)c1c(-c2ccc(F)cc2)oc2ccc(-c3c(C)ccc(C(=O)NC4(c5ccccn5)CC4)c3F)cc12 | < 250 nM | < 20 nM |  | 
43 | CNC(=O)c1c(-c2ccc(F)cc2)oc2ccc(-c3cc(C(=O)NC(C)(C)C)c(OC)cc3C)c(F)c12 | < 250 nM | < 250 nM |  | 
44 | CCC(NC(=O)c1cc(-c2ccc3oc(-c4ccc(F)cc4)c(C(=O)NC)c3c2F)c(C)cc1OC)c1ncccn1 (centres unmarked) | < 250 nM | < 250 nM |  | 
45 | CNC(=O)c1c(-c2ccc(F)cc2)oc2ccc(-c3cc(C(=O)NC4(c5ncccn5)CC4)c(OC)cc3C)c(F)c12 | < 250 nM | < 250 nM |  | 
46 | CNC(=O)c1c(-c2ccc(F)cc2)oc2ccc(-c3cc(C(=O)NC4(c5ncccn5)CC4)c(OC)cc3C)cc12 | < 250 nM | < 250 nM |  | 
47 | CNC(=O)c1c(-c2ccc(F)cc2)oc2ccc(-c3cc(C(=O)NC4(c5ccn(C)n5)CC4)ccc3C)cc12 | < 250 nM | < 20 nM |  | 
48 | CNC(=O)c1c(-c2ccc(F)cc2)oc2ccc(-c3cc(C(=O)NC4(c5coc(C)n5)CC4)c(OC)cc3C)cc12 | < 250 nM | < 250 nM |  | 
49 | CNC(=O)c1c(-c2ccc(F)cc2)oc2ccc(-c3cc(C(=O)NC4(c5ccn(C)n5)CC4)c(OC)cc3C)cc12 | < 250 nM | < 250 nM |  | 
50 | CNC(=O)c1c(-c2ccc(F)cc2)oc2ccc(-c3cc(C(=O)NC4(c5cc(C)on5)CC4)c(OC)cc3C)cc12 | < 250 nM | < 250 nM |  | 
51 | CNC(=O)c1c(-c2ccc(F)cc2)oc2ccc(-c3cc(C(=O)NC4(c5ccccn5)CC4)c(-c4ccccc4Cl)cc3C)cc12 | < 250 nM | < 250 nM |  | 
52 | CNC(=O)c1c(-c2ccc(F)cc2)oc2ccc(-c3cc(C(=O)O)c(C)cc3C)c(F)c12 | > 10000 nM | 1000 to 10000 nM |  | 
53 | CNC(=O)c1c(-c2ccc(F)cc2)oc2ccc(-c3cc(C(=O)NC4(c5ccccn5)CC4)c(OC)cc3OCC(N)=O)cc12 | < 250 nM | < 20 nM |  | 
54 | CNC(=O)c1c(-c2ccc(F)cc2)oc2ccc(-c3cc(C(=O)NC4(c5ncccn5)CC4)c(C)cc3C)c(F)c12 | < 250 nM | 250 to 1000 nM |  | 
55 | CNC(=O)c1c(-c2ccc(F)cc2)oc2ccc(-c3cc(C(=O)NC4(c5ncccn5)CC4)c(C)cc3C)cc12 | < 250 nM | < 250 nM |  | 
56 | CNC(=O)c1c(-c2ccc(F)cc2)oc2ccc(-c3cc(C(=O)NC4(c5ncc(C)o5)CC4)ccc3C)cc12 |  |  | 1 to 250 nM | < 20 nM
57 | CNC(=O)c1c(-c2ccc(F)cc2)oc2ccc(-c3cc(C(=O)NC4(c5ocnc5C)CC4)c(OC)cc3C)cc12 |  |  | 1 to 250 nM | 1 to 250 nM
58 | CNC(=O)c1c(-c2ccc(F)cc2)oc2ccc(-c3cc(C(=O)NC4(c5ncc(C)o5)CC4)c(OC)cc3C)cc12 |  |  | 1 to 250 nM | < 20 nM
